Assay results: patent publication US8969352B2, “Substituted 2-azabicycles and their use as orexin receptor modulators” (Janssen Pharmaceutica NV, priority 2013, dated 2015)

Key:
human orexin 2 receptor = human orexin 2 receptor (Homo sapiens (Human), UniProt O43614); assay: Human orexin 2 receptor radioligand binding; conditions: HEK293 stably expressing human orexin 2 receptor; [3H]-EMPA competitive binding, apparent Ki; read-out: hOX2 Ki
Protocol: Human Orexin 2 Receptor Radioligand Binding Studies
(§1) After centrifugation (2K×G, 5 min at 4° C.), the supernatant was aspirated and the pellets frozen and stored at −80° C. […] Each cell pellet from a 15 cm plate was resuspended in 10 mL, stored on ice, and homogenized for 45 sec just prior to addition to the reactions. Competition binding experiments in 96 well polypropylene plates were performed using [^3H]-EMPA (Moraveck Corporation, specific activity=29.6 Ci/mmol), diluted to a 5 nM concentration in PBS (2 nM final concentration). […] The final concentration of DMSO in the reactions is equal to or less than 0.1%. Total and nonspecific binding was determined in the absence and presence of 10 μM almorexant. The total volume of each reaction is 200 μL (20 μL of diluted compounds, 80 μL of [^3H]-EMPA diluted in PBS and 100 μL of the cell suspension). […] The plates were washed 3 times by aspirating 30 ml PBS through the plates. Plates were dried in 55° C. oven for 60 min, scintillation fluid was added, and the radioactivity was counted on a Topcount (Packard).

rat orexin 1 receptor = rat orexin 1 receptor (Rattus norvegicus, UniProt P56718); assay: Rat orexin 1 receptor radioligand binding; conditions: HEK293 cells stably expressing rat orexin 1 receptor; competitive radioligand binding, apparent Ki; read-out: rOX1 Ki
Protocol: Rat and Human Orexin 1 Receptor Radioligand Binding Studies
as §1, with “sec” for “sec just”, “reactions.” for “reactions. Competition binding experiments in 96 well polypropylene plates were performed using [^3H]-EMPA (Moraveck Corporation, specific activity=29.6 Ci/mmol), diluted to a 5 nM concentration in PBS (2 nM final concentration).”, “[^3H]-(1-(5-(2-fluoro-phenyl)-2-methyl-thiazol-4-yl)-1-((S)-2-(5-phenyl-(1,3,4)oxadiazol-2-ylmethyl)-pyrrolidin-1-yl)-methanone)” for “[^3H]-EMPA”

Chain of human orexin 2 receptor (O43614 whole entry): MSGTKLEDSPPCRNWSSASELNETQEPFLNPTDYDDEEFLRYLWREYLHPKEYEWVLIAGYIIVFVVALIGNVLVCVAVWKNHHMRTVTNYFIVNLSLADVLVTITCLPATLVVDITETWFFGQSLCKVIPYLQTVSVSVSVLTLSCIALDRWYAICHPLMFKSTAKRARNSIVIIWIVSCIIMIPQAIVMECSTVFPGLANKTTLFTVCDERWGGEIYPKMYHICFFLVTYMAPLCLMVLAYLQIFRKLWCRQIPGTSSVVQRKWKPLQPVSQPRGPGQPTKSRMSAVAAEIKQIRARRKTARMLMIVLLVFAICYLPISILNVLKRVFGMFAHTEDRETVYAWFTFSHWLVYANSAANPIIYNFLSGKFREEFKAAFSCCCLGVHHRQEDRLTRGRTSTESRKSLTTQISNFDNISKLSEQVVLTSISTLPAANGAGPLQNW

| Structure (SMILES) | Ki (human orexin 2 receptor) [nM] | Ki (rat orexin 1 receptor) [nM] |
| --- | --- | --- |
| O=C(c1cccc(F)c1-n1nccn1)N1CC2CC(Oc3ccc(C(F)(F)F)cn3)C1C2 (racemic) [Example 16, (R/S)-(3-fluoro-2-(2H-1,2,3-triazol-2-yl)phenyl)(6-((5-(trifluoromethyl)pyridin-2-yl)oxy)-2-azabicyclo[2.2.1]heptan-2-yl)methanone] |  | 8 |
| COc1c(F)cccc1C(=O)N1C[C@H]2C[C@@H](Oc3ccc(C(F)(F)F)cn3)[C@@H]1C2 [Example 31, (3-fluoro-2-methoxyphenyl)((1S,4R,6R)-6-((5-(trifluoromethyl)pyridin-2-yl)oxy)-2-azabicyclo[2.2.1]heptan-2-yl)methanone] | > 10000 | 707 |
| O=C(c1ccccc1-n1cnnc1)N1CC2CC(Oc3ccc(C(F)(F)F)cn3)C1C2 (racemic) [Example 21, (R/S)-(2-(4H-1,2,4-triazol-4-yl)phenyl)(6-((5-(trifluoromethyl)pyridin-2-yl)oxy)-2-azabicyclo[2.2.1]heptan-2-yl)methanone] | > 10000 | > 10000 |
| Cc1cnc(C(=O)N2CC3CC(Oc4cnc(C(F)(F)F)cn4)C2C3)c(-n2nccn2)c1 (racemic) [Example 4] | > 10000 | 837 |
| Cc1cnn(C)c1-c1ccccc1C(=O)N1C[C@H]2C[C@@H](Oc3ccc(C(F)(F)F)cn3)[C@@H]1C2 [Example 41, (2-(1,4-dimethyl-1H-pyrazol-5-yl)phenyl)((1S,4R,6R)-6-((5-(trifluoromethyl)pyridin-2-yl)oxy)-2-azabicyclo[2.2.1]heptan-2-yl)methanone] | > 10000 | 4400 |
| Cc1cccc(C(=O)N2CC3CC(Oc4ccc(C(F)(F)F)cn4)C2C3)c1-n1nccn1 (racemic) [Example 17, (R/S)-(3-methyl-2-(2H-1,2,3-triazol-2-yl)phenyl)(6-((5-(trifluoromethyl)pyridin-2-yl)oxy)-2-azabicyclo[2.2.1]heptan-2-yl)methanone] | 234 |  |

Results, then the molecule that gave them:

| Ki (human orexin 2 receptor) [nM] | Ki (rat orexin 1 receptor) [nM] | Structure (SMILES) |
| --- | --- | --- |
| 229 |  | COc1cccc(-n2nccn2)c1C(=O)N1CC2CC(Oc3ccc(C(F)(F)F)cn3)C1C2 (racemic) [Example 15] |
|  | 8 | O=C(c1cccc(F)c1-n1nccn1)N1C[C@H]2C[C@@H](Oc3ccc(C(F)(F)F)cn3)[C@@H]1C2 [Example 35, (3-fluoro-2-(2H-1,2,3-triazol-2-yl)phenyl)((1S,4R,6R)-6-((5-(trifluoromethyl)pyridin-2-yl)oxy)-2-azabicyclo[2.2.1]heptan-2-yl)methanone] |
| 2100 |  | O=C(c1ccc(F)cc1-c1ncccn1)N1C[C@H]2C[C@@H](Oc3ccc(C(F)(F)F)cn3)[C@@H]1C2 [Example 26, (4-fluoro-2-(pyrimidin-2-yl)phenyl)((1S,4R,6R)-6-((5-(trifluoromethyl)pyridin-2-yl)oxy)-2-azabicyclo[2.2.1]heptan-2-yl)methanone] |
| 2700 |  | O=C(c1ccc(F)cc1-c1ncccn1)N1CC2CC(Oc3ccc(C(F)(F)F)cn3)C1C2 (racemic) [Example 20, (R/S)-(4-fluoro-2-(pyrimidin-2-yl)phenyl)(-6-((5-(trifluoromethyl)pyridin-2-yl)oxy)-2-azabicyclo[2.2.1]heptan-2-yl)methanone] |
| 1450 |  | CCOc1ncc2ccccc2c1C(=O)N1CC2CC(Oc3ccc(C(F)(F)F)cn3)C1C2 (racemic) [Example 8, (R/S)-(3-ethoxyisoquinolin-4-yl)(6-((5-(trifluoromethyl)pyridin-2-yl)oxy)-2-azabicyclo[2.2.1]heptan-2-yl)methanone] |
| 676 | 294 | O=C(c1ccccc1-n1nccn1)N1C[C@H]2C[C@@H](Oc3ncccc3C(F)(F)F)[C@@H]1C2 [Example 51, (2-(2H-1,2,3-triazol-2-yl)phenyl)((1S,4R,6R)-6-((3-(trifluoromethyl)pyridin-2-yl)oxy)-2-azabicyclo[2.2.1]heptan-2-yl)methanone] |
